The values below come from patent US20080064691A1, “Heterocyclic Amide Derivatives Which Possess Glycogen Phosphorylase Inhibitory Activity” (AstraZeneca AB, priority 2003, published 2008).

Each structure is given as a SMILES string.

Assay [1] concerns conscious dogs. The settings on record: cited from earlier work.
Assay [2] concerns hepatocytes. Conditions: cited from earlier work.
Assay [3] has as its system db/db and ob/ob mice. Conditions: db/db and ob/ob mice following treatment; cited from earlier work.
For assay [4], the target named is T1, Human recombinant liver glycogen phosphorylase a (hrl GPα) (Homo sapiens, UniProt P06737).
T1 sequence (P06737 1-847): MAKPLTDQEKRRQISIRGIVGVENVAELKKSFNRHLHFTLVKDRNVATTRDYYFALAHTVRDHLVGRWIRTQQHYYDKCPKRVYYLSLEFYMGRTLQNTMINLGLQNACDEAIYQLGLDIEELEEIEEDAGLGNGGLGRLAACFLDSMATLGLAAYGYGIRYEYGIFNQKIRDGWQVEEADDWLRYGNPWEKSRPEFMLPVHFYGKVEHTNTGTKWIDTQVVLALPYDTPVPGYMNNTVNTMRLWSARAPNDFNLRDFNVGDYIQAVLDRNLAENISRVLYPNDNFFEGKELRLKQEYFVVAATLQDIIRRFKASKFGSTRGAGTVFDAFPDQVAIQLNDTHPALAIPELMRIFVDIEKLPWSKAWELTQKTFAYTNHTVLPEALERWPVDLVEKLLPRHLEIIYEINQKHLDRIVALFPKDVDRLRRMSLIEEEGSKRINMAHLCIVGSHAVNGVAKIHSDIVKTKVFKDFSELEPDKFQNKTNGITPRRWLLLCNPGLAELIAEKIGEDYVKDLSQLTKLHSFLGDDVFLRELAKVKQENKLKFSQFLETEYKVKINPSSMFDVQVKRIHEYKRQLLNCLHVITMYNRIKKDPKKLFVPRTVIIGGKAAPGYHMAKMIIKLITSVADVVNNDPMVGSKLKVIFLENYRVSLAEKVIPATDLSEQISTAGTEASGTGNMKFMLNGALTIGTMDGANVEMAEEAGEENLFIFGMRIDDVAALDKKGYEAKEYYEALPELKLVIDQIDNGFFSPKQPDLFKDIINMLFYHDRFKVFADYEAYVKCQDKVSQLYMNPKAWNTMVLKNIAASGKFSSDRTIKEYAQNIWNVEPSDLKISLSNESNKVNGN
The experiment in a line: glycogen phosphorylase inhibition, multienzyme coupled assay (glucose-1-phosphate production from glycogen). Conditions: hrl GPα 20 nM, 6 hours at 30° C. In kind it is biochemical. Here is the method: The activity of the compounds is determined by measuring the inhibitory effect of the compounds on glycogen degradation, the production of glucose-1-phosphate from glycogen is monitored by the multienzyme coupled assay, as described in EP 0 846 464 A2, general method of Pesce et al (Pesce, M A, Bodourian, S H, Harris, R C, and Nicholson, J F (1977) Clinical Chemistry 23, […]). The reactions were in 384 well microplate format in a volume of 50 μl. The change in fluorescence due to the conversion of the co-factor NAD to NADH is measured at 340 nm excitation, 465 nm emission in a Tecan Ultra Multifunctional Microplate Reader. The reaction is in 50 mM HEPES, 3.5 mM KH2PO4, 2.5 mM MgCl2, 2.5 mM ethylene glycol-bis(b-aminoethyl ether) N,N,N′,N′-tetraacetic acid, 100 mM KCl, 8 mM D-(+)-glucose pH7.2, containing 0.5 mM dithiothreitol, the assay buffer solution. Human recombinant liver glycogen phosphorylase a (hrl GPα) 20 nM is pre-incubated in assay buffer solution with 6.25 mM NAD, 1.25 mg type III glycogen at 1.25 mg ml^−1 the reagent buffer, for 30 minutes. […] The non-inhibited activity of GPα is measured in the presence of 10 μl 5% DMSO in assay buffer solution and maximum inhibition measured in the presence of 5 mgs ml^−1 N-ethylmaleimide. […] Relative Fluoresence Units (RFUs) are measured at 340 nm excitation, 465 nm emission . […]

As to `CCN1C(C)=C(C(=O)OC(C)C)C(c2ccccc2Cl)C2=C1COC2=O` (stereo not drawn) [Bay R3401], in assay [1], the “arterial plasma glucose following a glucagon challenge” value is recorded as “reduced significantly” and the “hepatic glucose output following a glucagon challenge” value is given as “reduced significantly”.

Regarding `CN(C)C(=O)[C@H](O)[C@H](Cc1ccccc1)NC(=O)c1cc2cc(Cl)ccc2[nH]1` [CP91149], in assay [2], the glucagon stimulated glycogenolysis result is recorded as “reduce” and the glucose output result is on record as “reduce”. Besides, the plasma glucose concentration entry in assay [3] is given as “reduced, in a dose related manner”.

Consider `O=C(N[C@@H](Cc1ccc(F)cc1)C(=O)N1CCC(O)CC1)c1cc2cc(Cl)ccc2[nH]1` [CP320626], for which, in assay [2], the glucagon stimulated glycogenolysis result is listed as “reduce” and the glucose output result is recorded as “reduce”. Besides, in assay [3], the plasma glucose concentration result is “reduced, in a dose related manner”.

For the molecule `O=C(N[C@@H]1Cc2ccccc2[C@H]1CO)c1cc2cc(Cl)sc2[nH]1` [Example 5, 2-Chloro-N-[(1R,2R)-1-(hydroxymethyl)-2,3-dihydro-1H-inden-2-yl]-6H-thieno[2,3-b]pyrrole-5-carboxamide], in assay [4], the IC50 (commonly the concentration at which inhibition is half-maximal) is 0.493 µM.
